Values after ≈ are worked out from the molar mass of the structure shown.
The molecules below were run on M. tuberculosis H37Rv (assay: MIC vs. M. tuberculosis H37Rv, microplate Alamar Blue assay (MABA)). Details: Table 1a, 11,12-carbamate derivatives; read-out: Anti-TB Activity MIC.
Format: cell-based
CC[C@H]1OC(=O)[C@H](C)C(=O)[C@H](C)[C@@H](O[C@@H]2O[C@H](C)C[C@H](N(C)C)[C@H]2O)[C@](C)(OC)C[C@@H](C)C(=O)[C@H](C)[C@H]2N(NCCc3ccccc3)C(=O)O[C@]12C [RU70645] gave an MIC of 14 µM (≈ 10.2 µg/mL). For CC[C@H]1OC(=O)[C@H](C)C(=O)[C@H](C)[C@@H](O[C@@H]2O[C@H](C)C[C@H](N(C)C)[C@H]2O)[C@](C)(OC)C[C@@H](C)C(=O)[C@H](C)[C@H]2N(CCCn3cnc4c3c(=O)n(C)c(=O)n4C)C(=O)O[C@]12C [RU66740], the MIC was over 128 µM. With CCC1OC(=O)C(C)(F)C(=O)C(C)C(OC2OC(C)CC(N(C)C)C2O)C(C)(OC)CC(C)C(=O)C(C)C2N(NCCCc3ccnc4ccccc34)C(=O)OC12C (centres unmarked) [RU3562] the MIC was 16 µM (≈ 13 µg/mL).

Same assay, conditions: Table 2a, 11,12-diols; read-out: Anti-TB Activity MIC
CC[C@H]1OC(=O)[C@H](C)C(=O)[C@H](C)[C@@H](O[C@@H]2O[C@H](C)C[C@H](N(C)C)[C@H]2O)[C@](C)(OC)C[C@@H](C)C(=O)[C@H](C)[C@@H](O)[C@]1(C)O [RU56006] showed an MIC of over 128 µM.

Same assay, conditions: Table 3, parallel-synthesis carbazate library products
CC[C@H]1OC(=O)[C@H](C)[C@@H](O[C@H]2CC(C)(OC)[C@@H](O)[C@H](C)O2)[C@H](C)[C@@H](O[C@@H]2O[C@H](C)C[C@H](N(C)C)[C@H]2O)[C@](C)(OC)C[C@@H](C)C(=O)[C@H](C)[C@H]2N(NCc3sc(C)nc3C)C(=O)O[C@]12C (some centres unmarked) [F5′] was tested, and the MIC was over 19 µM. For CC[C@H]1OC(=O)[C@H](C)[C@@H](O[C@H]2CC(C)(OC)[C@@H](O)[C@H](C)O2)[C@H](C)[C@@H](O[C@@H]2O[C@H](C)C[C@H](N(C)C)[C@H]2O)[C@](C)(OC)C[C@@H](C)C(=O)[C@H](C)[C@H]2N(NCc3cccnc3)C(=O)O[C@]12C (some centres unmarked) [D9′], the MIC was over 15 µM. Work on CC[C@H]1OC(=O)[C@H](C)[C@@H](O[C@H]2CC(C)(OC)[C@@H](O)[C@H](C)O2)[C@H](C)[C@@H](O[C@@H]2O[C@H](C)C[C@H](N(C)C)[C@H]2O)[C@](C)(OC)C[C@@H](C)C(=O)[C@H](C)[C@H]2N(NCC3CSN=N3)C(=O)O[C@]12C (some centres unmarked) [G10′] yielded an MIC of over 16 µM. With CC[C@H]1OC(=O)[C@H](C)[C@@H](O[C@H]2CC(C)(OC)[C@@H](O)[C@H](C)O2)[C@H](C)[C@@H](O[C@@H]2O[C@H](C)C[C@H](N(C)C)[C@H]2O)[C@](C)(OC)C[C@@H](C)C(=O)[C@H](C)[C@H]2N(NCc3cccc4nsnc34)C(=O)O[C@]12C (some centres unmarked) [H3′] the MIC was over 22 µM. In the case of CC[C@H]1OC(=O)[C@H](C)[C@@H](O[C@H]2CC(C)(OC)[C@@H](O)[C@H](C)O2)[C@H](C)[C@@H](O[C@@H]2O[C@H](C)C[C@H](N(C)C)[C@H]2O)[C@](C)(OC)C[C@@H](C)C(=O)[C@H](C)[C@H]2N(NCc3cncn3C)C(=O)O[C@]12C (some centres unmarked) [B5′], the MIC is reported as over 27 µM. With CC[C@H]1OC(=O)[C@H](C)[C@@H](O[C@H]2CC(C)(OC)[C@@H](O)[C@H](C)O2)[C@H](C)[C@@H](O[C@@H]2O[C@H](C)C[C@H](N(C)C)[C@H]2O)[C@](C)(OC)C[C@@H](C)C(=O)[C@H](C)[C@H]2N(NCc3ccc4c(c3)nnn4C)C(=O)O[C@]12C (some centres unmarked) [H7′] the MIC was over 22 µM. In the case of CC[C@H]1OC(=O)[C@H](C)[C@@H](O[C@H]2CC(C)(OC)[C@@H](O)[C@H](C)O2)[C@H](C)[C@@H](O[C@@H]2O[C@H](C)C[C@H](N(C)C)[C@H]2O)[C@](C)(OC)C[C@@H](C)C(=O)[C@H](C)[C@H]2N(NCc3cn(S(=O)(=O)c4ccc(C)cc4)c4ccccc34)C(=O)O[C@]12C (some centres unmarked) [C4′], the MIC is reported as 11 µM (≈ 11.8 µg/mL). Molecule CC[C@H]1OC(=O)[C@H](C)[C@@H](O[C@H]2CC(C)(OC)[C@@H](O)[C@H](C)O2)[C@H](C)[C@@H](O[C@@H]2O[C@H](C)C[C@H](N(C)C)[C@H]2O)[C@](C)(OC)C[C@@H](C)C(=O)[C@H](C)[C@H]2N(NCc3ccc(N4CCC(c5ccccc5OC)CC4)c([N+](=O)[O-])c3)C(=O)O[C@]12C (some centres unmarked) [G12′] has an MIC of 19 µM (≈ 21.1 µg/mL). In the case of CC[C@H]1OC(=O)[C@H](C)[C@@H](O[C@H]2CC(C)(OC)[C@@H](O)[C@H](C)O2)[C@H](C)[C@@H](O[C@@H]2O[C@H](C)C[C@H](N(C)C)[C@H]2O)[C@](C)(OC)C[C@@H](C)C(=O)[C@H](C)[C@H]2N(NCc3nc4ccccc4s3)C(=O)O[C@]12C (some centres unmarked) [F7′], the MIC is reported as 16 µM (≈ 15 µg/mL). CC[C@H]1OC(=O)[C@H](C)[C@@H](O[C@H]2CC(C)(OC)[C@@H](O)[C@H](C)O2)[C@H](C)[C@@H](O[C@@H]2O[C@H](C)C[C@H](N(C)C)[C@H]2O)[C@](C)(OC)C[C@@H](C)C(=O)[C@H](C)[C@H]2N(NCc3c[nH]nc3-c3ccc(F)cc3)C(=O)O[C@]12C (some centres unmarked) [D5′] showed an MIC of 25 µM (≈ 24.1 µg/mL). CCOC(=O)c1cc(-c2ccc(Cl)cc2)oc1CNN1C(=O)O[C@]2(C)[C@@H](CC)OC(=O)[C@H](C)[C@@H](O[C@H]3CC(C)(OC)[C@@H](O)[C@H](C)O3)[C@H](C)[C@@H](O[C@@H]3O[C@H](C)C[C@H](N(C)C)[C@H]3O)[C@](C)(OC)C[C@@H](C)C(=O)[C@H](C)[C@@H]12 (some centres unmarked) [B1′] showed an MIC of over 18 µM. CC[C@H]1OC(=O)[C@H](C)[C@@H](O[C@H]2CC(C)(OC)[C@@H](O)[C@H](C)O2)[C@H](C)[C@@H](O[C@@H]2O[C@H](C)C[C@H](N(C)C)[C@H]2O)[C@](C)(OC)C[C@@H](C)C(=O)[C@H](C)[C@H]2N(NCc3[nH]ncc3Br)C(=O)O[C@]12C (some centres unmarked) [D1′] showed an MIC of 23 µM (≈ 21.8 µg/mL). With CC[C@H]1OC(=O)[C@H](C)[C@@H](O[C@H]2CC(C)(OC)[C@@H](O)[C@H](C)O2)[C@H](C)[C@@H](O[C@@H]2O[C@H](C)C[C@H](N(C)C)[C@H]2O)[C@](C)(OC)C[C@@H](C)C(=O)[C@H](C)[C@H]2N(NCc3sccc3Oc3ccccc3)C(=O)O[C@]12C (some centres unmarked) [G4′] the MIC was 13 µM (≈ 12.7 µg/mL). CC[C@H]1OC(=O)[C@H](C)[C@@H](O[C@H]2CC(C)(OC)[C@@H](O)[C@H](C)O2)[C@H](C)[C@@H](O[C@@H]2O[C@H](C)C[C@H](N(C)C)[C@H]2O)[C@](C)(OC)C[C@@H](C)C(=O)[C@H](C)[C@H]2N(NCc3c(C(F)(F)F)nn(C)c3Cl)C(=O)O[C@]12C (some centres unmarked) [D3′] gave an MIC of 20 µM (≈ 19.7 µg/mL). CC[C@H]1OC(=O)[C@H](C)[C@@H](O[C@H]2CC(C)(OC)[C@@H](O)[C@H](C)O2)[C@H](C)[C@@H](O[C@@H]2O[C@H](C)C[C@H](N(C)C)[C@H]2O)[C@](C)(OC)C[C@@H](C)C(=O)[C@H](C)[C@H]2N(NCc3cc(C(=O)OC)c(C)o3)C(=O)O[C@]12C (some centres unmarked) [A12′] gave an MIC of over 12 µM. CC[C@H]1OC(=O)[C@H](C)[C@@H](O[C@H]2CC(C)(OC)[C@@H](O)[C@H](C)O2)[C@H](C)[C@@H](O[C@@H]2O[C@H](C)C[C@H](N(C)C)[C@H]2O)[C@](C)(OC)C[C@@H](C)C(=O)[C@H](C)[C@H]2N(NCc3cccn3-c3ccc(Cl)cc3)C(=O)O[C@]12C (some centres unmarked) [E12′] was tested, and the MIC was 3.4 µM (≈ 3.32 µg/mL). With CCC1OC(=O)C(C)C(OC2CC(C)(OC)C(O)C(C)O2)C(C)C(OC2OC(C)CC(N(C)C)C2O)C(C)(OC)CC(C)C(=O)C(C)C2N(N=CC3=C(Cl)c4cc(F)ccc4OC3)C(=O)OC12C (centres unmarked) [H9′] the MIC was “?3 μM”. CC[C@H]1OC(=O)[C@H](C)[C@@H](O[C@H]2CC(C)(OC)[C@@H](O)[C@H](C)O2)[C@H](C)[C@@H](O[C@@H]2O[C@H](C)C[C@H](N(C)C)[C@H]2O)[C@](C)(OC)C[C@@H](C)C(=O)[C@H](C)[C@H]2N(NCc3c(Sc4ccc(Cl)cc4)nc4sccn34)C(=O)O[C@]12C (some centres unmarked) [H11′] was tested, and the MIC was 35.4 µM (≈ 37.8 µg/mL). CC[C@H]1OC(=O)[C@H](C)[C@@H](O[C@H]2CC(C)(OC)[C@@H](O)[C@H](C)O2)[C@H](C)[C@@H](O[C@@H]2O[C@H](C)C[C@H](N(C)C)[C@H]2O)[C@](C)(OC)C[C@@H](C)C(=O)[C@H](C)[C@H]2N(NCc3cc(Cl)cc(Br)c3O)C(=O)O[C@]12C (some centres unmarked) [G8′] was tested, and the MIC was 14 µM (≈ 14.1 µg/mL). Work on CC[C@H]1OC(=O)[C@H](C)[C@@H](O[C@H]2CC(C)(OC)[C@@H](O)[C@H](C)O2)[C@H](C)[C@@H](O[C@@H]2O[C@H](C)C[C@H](N(C)C)[C@H]2O)[C@](C)(OC)C[C@@H](C)C(=O)[C@H](C)[C@H]2N(NCc3ccc([N+](=O)[O-])o3)C(=O)O[C@]12C (some centres unmarked) [A8′] yielded an MIC of over 9 µM. Molecule CC[C@H]1OC(=O)[C@H](C)[C@@H](O[C@H]2CC(C)(OC)[C@@H](O)[C@H](C)O2)[C@H](C)[C@@H](O[C@@H]2O[C@H](C)C[C@H](N(C)C)[C@H]2O)[C@](C)(OC)C[C@@H](C)C(=O)[C@H](C)[C@H]2N(NC/C=C/c3ccccc3)C(=O)O[C@]12C (some centres unmarked) [A4′] has an MIC of 7 µM (≈ 6.33 µg/mL). Molecule CC[C@H]1OC(=O)[C@H](C)[C@@H](O[C@H]2CC(C)(OC)[C@@H](O)[C@H](C)O2)[C@H](C)[C@@H](O[C@@H]2O[C@H](C)C[C@H](N(C)C)[C@H]2O)[C@](C)(OC)C[C@@H](C)C(=O)[C@H](C)[C@H]2N(/N=C/c3c(C)noc3-c3ccccc3)C(=O)O[C@]12C (some centres unmarked) [C12′] has an MIC of 9 µM (≈ 8.61 µg/mL). CC[C@H]1OC(=O)[C@H](C)[C@@H](O[C@H]2CC(C)(OC)[C@@H](O)[C@H](C)O2)[C@H](C)[C@@H](O[C@@H]2O[C@H](C)C[C@H](N(C)C)[C@H]2O)[C@](C)(OC)C[C@@H](C)C(=O)[C@H](C)[C@H]2N(NC/C=C/c3cc(OC)c(O)c(OC)c3)C(=O)O[C@]12C (some centres unmarked) [A6′] showed an MIC of 10.2 µM (≈ 10 µg/mL). With CC[C@H]1OC(=O)[C@H](C)[C@@H](O[C@H]2CC(C)(OC)[C@@H](O)[C@H](C)O2)[C@H](C)[C@@H](O[C@@H]2O[C@H](C)C[C@H](N(C)C)[C@H]2O)[C@](C)(OC)C[C@@H](C)C(=O)[C@H](C)[C@H]2N(NCc3cccn3-c3ccc(C(F)(F)F)cc3)C(=O)O[C@]12C (some centres unmarked) [F1′] the MIC was 17.6 µM (≈ 17.8 µg/mL). Work on CC[C@H]1OC(=O)[C@H](C)[C@@H](O[C@H]2CC(C)(OC)[C@@H](O)[C@H](C)O2)[C@H](C)[C@@H](O[C@@H]2O[C@H](C)C[C@H](N(C)C)[C@H]2O)[C@](C)(OC)C[C@@H](C)C(=O)[C@H](C)[C@H]2N(NCc3nccn3C)C(=O)O[C@]12C (some centres unmarked) [B3′] yielded an MIC of over 18 µM. With CC[C@H]1OC(=O)[C@H](C)[C@@H](O[C@H]2CC(C)(OC)[C@@H](O)[C@H](C)O2)[C@H](C)[C@@H](O[C@@H]2O[C@H](C)C[C@H](N(C)C)[C@H]2O)[C@](C)(OC)C[C@@H](C)C(=O)[C@H](C)[C@H]2N(NCc3ccoc3)C(=O)O[C@]12C (some centres unmarked) [A10′] the MIC was over 7 µM. Molecule CC[C@H]1OC(=O)[C@H](C)[C@@H](O[C@H]2CC(C)(OC)[C@@H](O)[C@H](C)O2)[C@H](C)[C@@H](O[C@@H]2O[C@H](C)C[C@H](N(C)C)[C@H]2O)[C@](C)(OC)C[C@@H](C)C(=O)[C@H](C)[C@H]2N(NCc3cnccc3NC(=O)C(C)(C)C)C(=O)O[C@]12C (some centres unmarked) [E2′] has an MIC of over 27 µM. In the case of CC[C@H]1OC(=O)[C@H](C)[C@@H](O[C@H]2CC(C)(OC)[C@@H](O)[C@H](C)O2)[C@H](C)[C@@H](O[C@@H]2O[C@H](C)C[C@H](N(C)C)[C@H]2O)[C@](C)(OC)C[C@@H](C)C(=O)[C@H](C)[C@H]2N(NCc3c(C)[nH]c4ccc([N+](=O)[O-])cc34)C(=O)O[C@]12C (some centres unmarked) [B11′], the MIC is reported as over 22 µM.

Source: US20050014706A1, “Method of treating tuberculosis” (priority 2003, published 2005)
